Measured values from US5198424A, “Functionally active selectin-derived peptides” (Board of Regents of the University of Oklahoma, priority 1992, dated 1993).
Read-outs that look alike come from different tables or passages of the source. Values belong to the substance of their own block, whether it stands above or below them. Ends that are not written are not given here.

Key:
[1] = molecular target: T1, GMP-140 (Homo sapiens, UniProt P16109); test: Neutrophil adhesion to purified GMP-140 immobilized on plastic wells (myeloperoxidase readout); assay type: cell-based; set-up: from tissue; host or cells: outdated human platelet packs (platelet lysate); conditions: for % Bound (neutrophils bound to immobilized GMP-140 in the presence of GMP-140-derived peptide): peptide 1.5 mM, cells bound with control C-terminal peptide 761-777 normalized to 100%
T1 sequence (P16109 42-830): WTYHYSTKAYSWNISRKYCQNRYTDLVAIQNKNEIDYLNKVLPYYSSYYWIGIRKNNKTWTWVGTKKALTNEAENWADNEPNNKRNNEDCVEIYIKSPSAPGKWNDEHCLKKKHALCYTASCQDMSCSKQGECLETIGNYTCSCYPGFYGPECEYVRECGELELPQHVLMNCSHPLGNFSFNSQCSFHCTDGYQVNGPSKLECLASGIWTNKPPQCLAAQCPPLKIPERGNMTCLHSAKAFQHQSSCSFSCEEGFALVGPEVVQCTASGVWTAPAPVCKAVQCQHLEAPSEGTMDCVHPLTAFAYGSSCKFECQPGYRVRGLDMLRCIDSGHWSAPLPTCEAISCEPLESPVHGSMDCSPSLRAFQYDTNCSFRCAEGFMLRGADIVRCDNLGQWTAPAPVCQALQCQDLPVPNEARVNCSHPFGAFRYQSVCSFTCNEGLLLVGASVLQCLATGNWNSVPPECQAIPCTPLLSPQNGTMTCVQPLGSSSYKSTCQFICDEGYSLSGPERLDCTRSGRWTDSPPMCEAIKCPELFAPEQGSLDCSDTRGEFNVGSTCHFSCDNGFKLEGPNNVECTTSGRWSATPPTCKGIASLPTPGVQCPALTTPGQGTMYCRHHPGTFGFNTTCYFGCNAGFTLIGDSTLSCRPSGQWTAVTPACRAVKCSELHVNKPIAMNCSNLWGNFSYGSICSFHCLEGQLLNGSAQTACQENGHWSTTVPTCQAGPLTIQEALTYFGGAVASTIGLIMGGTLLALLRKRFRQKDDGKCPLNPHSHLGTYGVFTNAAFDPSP
Source text: Peptides were screened for their ability to inhibit neutrophil adhesion to purified GMP-140 immobilized on plastic wells, using the assay described by Geng, et al., Nature 343, 757-760 (1990).
Human neutrophils are isolated from heparinized whole blood by density gradient centrifugation on Mono-Poly resolving media, Flow Laboratories. Neutrophil suspensions are greater than 98% pure and greater than 95% viable by trypan blue exclusion. For adhesion assays, neutrophils are suspended at a concentration of 2×10^6 cells/ml in Hanks' balanced salt solution containing 1.26 mM Ca^2+ and 0.81 mM Mg^2+ (HBSS, Gibco) with 5 mg/ml human serum albumin (HBSS/HSA). Adhesion assays are conducted in triplicate in 96-well microtiter plates, Corning, incubated at 4° C. overnight with 50 microliters of various protein solutions.
GMP-140 is plated at 5 micrograms/ml and the control proteins: human serum albumin (Alb), platelet glycoprotein IIb/IIIa (IIb), von Willebrand factor (vWF), fibrinogen (FIB), thrombomodulin (TM), gelatin (GEL) or human serum (HS), are added at 50 micrograms/ml. All wells are blocked for 2 h at 22° C. with 300 microliters HBSS containing 10 mg/ml HSA, then washed three times with HBSS containing 0.1% Tween-20 and once with HBSS. Cells (2×10^5 per well were added to the wells and incubated at 22° C. for 20 min. The wells were then filled with HBSS/HSA, sealed with acetate tape (Dynatech), and centrifuged inverted at 150 g for 5 min. After discarding nonadherent cells and supernates, the contents of each well are solubilized with 200 microliters 0.5% hexadecyltrimethylammonium bromide, Sigma, in 50 mM potassium phosphate, pH 6.0, and assayed for myeloperoxidase activity, Ley, et al., Blood 73, 1324-1330 (1989). The number of cells bound was derived from a standard curve of myeloperoxidase activity versus numbers of cells. Under all assay conditions, the cells released less than 5% of total myeloperoxidase and lactate dehydrogenase. Results are presented in Table I. 100% adhesion is that seen in the presence of the C-terminal peptide (amino acid residues 761-777 of GMP-140) as a negative control; this value is the same as controls in which neither peptide nor antibody is added to the cells. Inhibition is read as a lower percent adhesion, so that a value of 5% mean that 95% of the specific adhesion was inhibited.
Peptides from the lectin-like domain of GMP-140 were assayed for their ability to inhibit adhesion of neutrophils to immobilized GMP-140 in the assay described in example 1. Concentrations tested ranged from 0.1 mM to 1.5 mM.

[2] = molecular target: T1, GMP-140; test: ELISA of binding of biotinylated monoclonal antibodies G1, G2, G3 to immobilized GMP-140 with soluble peptide; set-up: from tissue; host or cells: outdated human platelet packs (platelet lysate); conditions: peptide 1.5 mM; for remaining activity at 1500 µM: 2 h
Method: Based on competitive ELISAs with the purified protein, G1, G2, and G3 each recognize distinct or only partially overlapping epitopes. 1.5 mM peptide was added to biotinylated mAb at a concentration of 2.5 micrograms/ml, which were then added to the wells containing GMP-140, as described in example 1. Binding was measured by an ELISA with an avidin detection system.
The monoclonal antibodies were biotinylated as follows: to 0.5 ml of purified IgG antibody (1 mg/ml in PBS, pH 7.4) was added 50 μl of 3.2 mM N-hydroxysuccinimide biotin in dimethyl sulfoxide and 50 μl of 1 M NaHCO3. After a 2 hour incubation at room temperature in the dark, the reaction was stopped with 50 μl of 1 M NH4 Cl. The biotinylated antibody was then separated from other components by gel filtration on a PD-10 column equilibrated in PBS. The ELISA was performed as follows; all steps were performed at room temperature.
Biotinylated antibody (2.5 μg/ml) with or without 1.5 mM peptide was incubated with wells coated with GMP-140 as described in example 1. After a 2 hour incubation, the antibody was removed, the wells were washed, and 0.1 ml of horseradish peroxidase-conjugated stepavidin (Pierce), diluted 1:1000 in HBSS/HSA, was added for 30 min. The wells were then washed and 0.1 ml of peroxidase substrate (Pierce) was added for 15 min. The color reaction was read at 405 nm.

[3] = mAb G1 2.5 micrograms/ml, read-out: % Binding of Biotinylated MAbs G1
[4] = mAb G2 2.5 micrograms/ml, read-out: % Binding of Biotinylated MAbs G2
[5] = mAb G3 2.5 micrograms/ml, read-out: % Binding of Biotinylated MAbs G3

Substance: 66-78: GMP-140 lectin domain amino acids 66-78, overlapping peptide; by b139 alignment KKALTENAENWAD
inhibition of neutrophil adhesion to immobilized GMP-140 (in words) [1]: inhibited adhesion
inhibition of neutrophil binding to immobilized GMP-140, dependence on concentration ([1]; FIG. 3, 0.1 mM to 1.5 mM peptide): inhibited binding in a dose-dependent manner
inhibition of neutrophil adhesion to immobilized GMP-140 (in words) ([1]; listed as 66 to 78): very active
% Bound (neutrophils bound to immobilized GMP-140 in the presence of GMP-140-derived peptide) [1]: 6%

Substance: CQNRYTDL [19-26]
% Bound (neutrophils bound to immobilized GMP-140 in the presence of GMP-140-derived peptide) [1]: 92%

Substance: CQNRYTDLVAIQ [19-30]
% Bound (neutrophils bound to immobilized GMP-140 in the presence of GMP-140-derived peptide) [1]: 12%
% Binding of Biotinylated MAbs G3 ([2]; mAb G3 2.5 micrograms/ml): 54%

Substance: CQNRYTDLVAIQNKNE [19-34]
% Bound (neutrophils bound to immobilized GMP-140 in the presence of GMP-140-derived peptide) [1]: 5%
% Binding of Biotinylated MAbs G1 ([2]; mAb G1 2.5 micrograms/ml): 23%
% Binding of Biotinylated MAbs G2 ([2]; mAb G2 2.5 micrograms/ml): 26%
% Binding of Biotinylated MAbs G3 ([2]; mAb G3 2.5 micrograms/ml): 24%

Substance: GTKKALTNE [64-72]
% Bound (neutrophils bound to immobilized GMP-140 in the presence of GMP-140-derived peptide) [1]: 92%

Substance: KNNKTW [55-60]
% Bound (neutrophils bound to immobilized GMP-140 in the presence of GMP-140-derived peptide) [1]: 70%

Substance: NKTWTWV [57-63]
% Bound (neutrophils bound to immobilized GMP-140 in the presence of GMP-140-derived peptide) [1]: 69%

Substance: NNKTW [56-60]
% Bound (neutrophils bound to immobilized GMP-140 in the presence of GMP-140-derived peptide) [1]: 96%

Substance: NRYTDLV [21-27]
% Bound (neutrophils bound to immobilized GMP-140 in the presence of GMP-140-derived peptide) [1]: 65%

Substance: NRYTDLVA [21-28]
% Bound (neutrophils bound to immobilized GMP-140 in the presence of GMP-140-derived peptide) [1]: 85%

The remaining lines, values ahead:

% Bound (neutrophils bound to immobilized GMP-140 in the presence of GMP-140-derived peptide) [1]: 68%
Substance: ADNEPNNKRNNED [77-89]

% Bound (neutrophils bound to immobilized GMP-140 in the presence of GMP-140-derived peptide) [1]: 100%
Substance: AENWADNE [73-80]

% Bound (neutrophils bound to immobilized GMP-140 in the presence of GMP-140-derived peptide) [1]: 41%
Substance: AENWADNEPNNKR [73-85]

% Bound (neutrophils bound to immobilized GMP-140 in the presence of GMP-140-derived peptide) [1]: 22%
% Binding of Biotinylated MAbs G1 ([2]; mAb G1 2.5 micrograms/ml): 95%
% Binding of Biotinylated MAbs G2 ([2]; mAb G2 2.5 micrograms/ml): 99%
% Binding of Biotinylated MAbs G3 ([2]; mAb G3 2.5 micrograms/ml): 94%
Substance: AENWADNEPNNKRNNED [73-89]

remaining activity at 1500 µM [2, 3]: 106%
remaining activity at 1500 µM [2, 4]: 99%
remaining activity at 1500 µM [2, 5]: 104%
Substance: CQDDGK [SECRETORY 720-721/762-765, reference compound]

remaining activity at 1500 µM [2, 3]: 107%
remaining activity at 1500 µM [2, 4]: 96%
remaining activity at 1500 µM [2, 5]: 111%
Substance: CSDTRGEFNVGST [REPEATS 544-556, reference compound]

% Bound (neutrophils bound to immobilized GMP-140 in the presence of GMP-140-derived peptide) [1]: 100%
remaining activity at 1500 µM [2, 3]: 100%
remaining activity at 1500 µM [2, 4]: 100%
remaining activity at 1500 µM [2, 5]: 100%
Substance: KDDGKCPLNPHSHLGTY [C-TERMINUS 761-777, reference compound]

remaining activity at 1500 µM [2, 3]: 97%
remaining activity at 1500 µM [2, 4]: 104%
remaining activity at 1500 µM [2, 5]: 109%
Substance: LETIGNYT [EGF 134-141]

remaining activity at 1500 µM [2, 3]: 98%
remaining activity at 1500 µM [2, 4]: 100%
remaining activity at 1500 µM [2, 5]: 108%
Substance: LKKKHAL [LECTIN 110-116]
